Source: patent publication US10716753B2, “Compositions for pulmonary delivery of long-acting muscarinic antagonists or long-acting B2 adrenergic receptor agonists and associated methods and systems” (priority 2009, dated 2020)

Assays:
[1] = Aerosol performance by Next Generation Impactor, USP <601> (fine particle fraction, MMAD); assay type: physicochemical
Experimental: A Next Generation Impactor (NGI) operated at a flow rate of 30 L/min was used for determination of particle size distribution. Sample canisters were seated into an actuator with two waste actuations and two additional waste priming actuations. Five actuations were collected in the NGI with a USP throat attached. The valve, actuator, throat, NGI cups, stages, and filter were rinsed with volumetrically dispensed solvent. The sample solutions were assayed using a drug specific chromatographic method. The fine particle fraction was defined using the sum of stages 3 through filter. […] Inhalers were seated and primed as described before. Two actuations were collected and assayed at beginning, middle and end of use.
A Next Generation Impactor (NGI) operated at a flow rate of 30 L/min was used for determination of particle size distribution. Sample canisters were seated into an actuator with two waste actuations and two additional waste priming actuations. Five actuations were collected in the NGI with a USP throat attached. The valve, actuator, throat, NGI cups, stages, and filter were rinsed with volumetrically dispensed solvent. The sample solutions were assayed using a drug specific chromatographic method. The fine particle fraction was defined using the sum of stages 3 through filter. […] Two actuations were collected and assayed at beginning, middle and end of use.
A Next Generation Impactor (NGI) operated at a flow rate of 30 L/min was used for determination of particle size distribution. Sample canisters were seated into an actuator with two waste actuations and two additional waste priming actuations. Five actuations were collected in the NGI with a USP throat attached. The valve, actuator, throat, NGI cups, stages, and filter were rinsed with volumetrically dispensed solvent. The sample solutions were assayed using a drug specific chromatographic method. The fine particle fraction was defined using the sum of stages 3 through filter.

[2] = Visual observation of suspension quality / co-suspension in glass vials, incl. centrifugation; assay type: physicochemical; conditions: glass vials heated to 30° C.-35° C.
From the text: Exemplary methods for assessing whether a co-suspension is present can include the following: If one particle type has a pycnometric density greater than the propellant and another particle type has a pycnometric density lower than the propellant, a visual observation of the creaming or sedimentation behavior can be employed to determine the presence of a co-suspension. The term “pycnometric density” refers to the density of a material that makes up a particle, excluding voids within the particle. In one embodiment, the materials can be formulated or transferred into a transparent vial, typically a glass vial, for visual observation. After initial agitation the vial is left undisturbed for a sufficient time for formation of a sediment or cream layer, typically 24 hours. If the sediment or cream layer is observed to be completely or mostly a uniform single layer, a co-suspension is present.
Metered dose inhalers were prepared by weighing the target masses of micronized GP particles and suspending particles into fluorinated ethylene polymer (FEP) coated aluminum canisters (Presspart, Blackburn, UK) with 19 mL volume. […]

[3] = test system: patients with mild to moderate COPD; test: Multi-center crossover clinical trial, single administration: FEV1 spirometry; assay type: in vivo, human; conditions: all doses of Glycopyrrolate MDI; tiotropium 18 μg
[4] = co-suspension MDI: 2 mg SX, 60 mg suspending particles, 10 mL HFA 134a

OCc1cc(C(O)CNCCCCCCOCCCCc2ccccc2)ccc1O (stereo not drawn) [SX, 4-hydroxy-α1-[[[6-(4-phenylbutoxy)hexyl]amino]methyl]-1,3-benzenedimethanol, 1-hydroxy-2-naphthalenecarboxylate]
Fine particle fraction [1, 4]: 48% | MMAD [1, 4]: 3.7 μm | Visual observation of active agent particles formulated alone [2]: sedimented rapidly | Visual observation of co-suspension vial [2]: no SX crystals were visible at the bottom

C[N+]1(C)CCC(OC(=O)C(O)(c2ccccc2)C2CCCC2)C1.[Br-] (stereo not drawn) [glycopyrrolate, Pyrrolidinium, 3-((cyclopentylhydroxyphenylacetyl)oxy)-1,1-dimethyl-, bromide]
Fine particle fraction ([1]; 24 μg per actuation co-suspension MDI, initially): 59.3%

C[N+]1(C)[C@@H]2C[C@@H](OC(=O)C(O)(c3cccs3)c3cccs3)C[C@H]1[C@@H]1O[C@@H]12 [tiotropium]
Mean time to ≥10% improvement in FEV1 [3]: approximately 3 hour
